Laboratory results as given in ChEMBL document CHEMBL1154198, “Chemical genetics of Plasmodium falciparum” (Nature, 2010).

Tests used:
Plasmodium falciparum [1] = test: ST_JUDE: Plasmodium falciparum 3D7 EC50 (uM) as measured by SYBR green dye; format: functional, organism-based
Plasmodium falciparum [2] = test: ST_JUDE: Plasmodium falciparum K1 EC50 (uM) as measured by SYBR green dye; format: functional, organism-based

SMILES | EC50 (Plasmodium falciparum [1]) | EC50 (Plasmodium falciparum [2])
CCCCn1c(C)c(C(=O)OCC)c2cc(OC(C)=O)c(Br)cc21 | 2.76 µM | > 15 µM
O=C(Nc1cccc(C(F)(F)F)c1)Nc1ccc(Cl)c(Cl)c1 | > 15 µM | 0.738 µM
CCCC(=O)NC(c1ccc(C)cc1)c1ccc2cccnc2c1O (configuration not stated) | 4.21 µM | > 15 µM
Cc1cc(N2CCC(N(C)C3CCCC3)CC2)nc2cc(O)ccc12 | 1.54 µM | > 15 µM
CCCN1CCN(CCCNC(=O)c2ccc3c(c2)sc2nc(-c4ccc(OC)cc4)cn23)CC1 | 0.839 µM | > 15 µM
CCCS(=O)(=O)N1CCC(CO)(Cc2ccccc2C(F)(F)F)CC1 | 3.37 µM | 2.26 µM
Fc1ccccc1Nc1nc(NCc2ccccc2)c2ccccc2n1 | 3.46 µM | 9.11 µM
CCN(CC)c1ccc(CNC(C)C(O)c2ccccc2)cc1 (configuration not stated) | 4.1 µM | 0.98 µM
CCc1cccc2c(C#N)cn(CCOc3ccccc3F)c12 | 1.26 µM | 0.973 µM
OCCN1CCN(c2nc(Nc3ccc(F)cc3)c3cnn(-c4ccccc4)c3n2)CC1 | 1.21 µM | 1.38 µM
CC(C)(C)c1cc(C(=O)Cn2c(NCCO)nc3ccccc32)cc(C(C)(C)C)c1O | > 15 µM | > 15 µM
COc1ccc(Cn2c(SCc3cccc(F)c3)nc3nccnc3c2=O)cc1 | > 15 µM | > 15 µM
CCC(=O)NC(c1ccc(Cl)cc1)c1ccc2cccnc2c1O (configuration not stated) | 2.05 µM | 1.81 µM
Cc1ccnc(NC(c2ccc([N+](=O)[O-])cc2)c2ccc3cccnc3c2O)c1 (configuration not stated) | 1.81 µM | 3.7 µM
CC(C)(C)CC(C)(C)c1ccc(O)c(CN2CCN(c3ccccc3)CC2)c1 | 0.354 µM | 0.174 µM
CCCCN1COc2c(c3c(C(C)=O)c(C)oc3c3ccccc23)C1 | > 15 µM | 4.31 µM
CC(/C=N/NC(=O)c1cc(-c2ccc(OC(C)C)cc2)n[nH]1)=C\c1ccccc1 | > 15 µM | > 15 µM
O=C(c1ccc(C(F)(F)F)cc1)N(Cc1ccc(OCc2ccc(F)cc2)cc1)Cc1cccnc1 | > 15 µM | > 15 µM
O=C(Cc1ccccc1)NC(c1ccc([N+](=O)[O-])cc1)c1c(O)ccc2ccccc12 (configuration not stated) | 6.31 µM | 5.77 µM
CCc1c2cccn2cc[n+]1C | 7.07 µM | 6.08 µM
Cc1ccc(C(NC(=O)CC(C)C)c2ccc3cccnc3c2O)cc1 (configuration not stated) | > 15 µM | > 15 µM
Cc1ccsc1CN(C(=O)COc1ccc(C(C)C)cc1)C1CCS(=O)(=O)C1 (configuration not stated) | > 15 µM | > 15 µM

SMILES | EC50 (Plasmodium falciparum [1]) | EC50 (Plasmodium falciparum [2])
COc1ccc(CCNC(=S)Nc2ccccc2Cl)cc1 | 4.88 µM | 4.8 µM
CCOC(=O)c1ccccc1NC(=S)N1CCCN(Cc2ccc(NC(C)=O)cc2)CC1 | 1.66 µM | 2.5 µM
O=C(C1CCCO1)N1N=C(c2c(O)nc3ccc(Cl)cc3c2-c2ccccc2)CC1c1ccco1 (configuration not stated) | > 15 µM | > 15 µM
Cc1cc(N(C)C)nc(Nc2ccc(NS(=O)(=O)c3cccc(Cl)c3)cc2)n1 | 7.69 µM | > 15 µM
CCCc1cc(O)nc(-n2nc(C)cc2NC(=O)c2ccc(C(C)(C)C)cc2)n1 | > 15 µM | 8.64 µM
COc1ccc2nc(N(Cc3cccnc3)C(=O)Cc3ccccc3)sc2c1 | 5.44 µM | 3.67 µM
CCN(CC)CCN1C(=O)c2oc3ccccc3c(=O)c2C1c1cccc(Cl)c1 (configuration not stated) | 0.984 µM | 1.08 µM
COc1cccc(CNC(=O)C2c3ccccc3C(=O)N(CC(C)C)C2c2cccs2)c1 (configuration not stated) | 5.27 µM | 4.13 µM
COc1ccc(N2C(=O)/C(=C/Nc3ccccc3OC)c3ccccc3C2=O)cc1 | > 15 µM | > 15 µM
O=C(Nc1ccc(Cl)cc1)C1c2ccccc2C(=O)N(C2CCCC2)C1c1cccs1 (configuration not stated) | 0.556 µM | 1.07 µM
CCN(CC)CC/N=c1\cc(-c2ccc(OC)c(OC)c2)oc2ccc(Cl)cc12.[O-][Cl+3]([O-])([O-])O | 0.543 µM | 5.14 µM
Cc1n[nH]c(-c2ccc(OC(C)C)cc2O)c1Oc1ccccc1 | 5.66 µM | 2.91 µM
CCN(CC)C(=O)c1ccc2c(c1)N(Cc1ccccc1)C(=O)c1ccccc1S2(=O)=O | > 15 µM | > 15 µM
O=C(NNc1nc2ccc(F)cc2s1)c1ccc(F)cc1 | > 15 µM | 7.1 µM
CN1C(=O)C(=Cc2ccc(-c3ccc(O)c(C(=O)O)c3)o2)C(=O)N(C)C1=O | > 15 µM | > 15 µM
CCC1CCCCN1CCCNC(=S)Nc1ccc2nc(N3CCN(CC)CC3)cc(C)c2c1 (configuration not stated) | 4.39 µM | 9.17 µM
CCCCNc1ccc2cccc(O)c2n1 | > 15 µM | 4.37 µM
Cc1ccccc1C(=O)N(Cc1cccnc1)c1nc2c(F)cccc2s1 | 4.67 µM | > 15 µM
O=C(CC1N=C2c3ccccc3N=C(SCc3ccc(F)cc3)N2C1=O)NCc1ccco1 (configuration not stated) | 8.19 µM | 5.69 µM
CNc1c([N+](=O)[O-])nn(-c2ccc(Cl)cc2)[n+]1[O-] | > 15 µM | 3.76 µM
CCOC(=O)C1=C(C)N=c2s/c(=C\c3cc(OC)ccc3O)c(=O)n2C1c1ccccc1 (configuration not stated) | > 15 µM | > 15 µM
CCC[N+]1(C)CCC2C(C1)c1ccccc1N2Cc1ccccc1 (configuration not stated) | 4.25 µM | > 15 µM

SMILES | EC50 (Plasmodium falciparum [1]) | EC50 (Plasmodium falciparum [2])
CCc1cccc2c(C#N)cn(CCOc3ccccc3Cl)c12 | 0.516 µM | 0.577 µM
CCCc1cc(O)nc(-n2nc(C)cc2NC(=O)c2cc(Cl)ccc2Cl)n1 | > 15 µM | > 15 µM
Cc1ccc(Nc2c(-c3ccccn3)nc3ccc(C)cn23)cc1 | 3.93 µM | > 15 µM
Cc1ccc(S(=O)(=O)NCC(c2cccnc2)N2CCN(c3ccccc3F)CC2)cc1 (configuration not stated) | > 15 µM | > 15 µM
CCCOCc1cc(CN2CCN(c3cccc(Cl)c3)CC2)c(O)c2ncccc12 | 1.1 µM | 0.896 µM
Oc1ccc(C(=C(Cl)Cl)c2ccc(O)cc2)cc1 | 2.47 µM | 0.927 µM
Cc1cc(C)c2nc(NC(=O)CSc3ccc(F)cc3)sc2c1 | > 15 µM | > 15 µM
O=C(c1cccc(F)c1)N(Cc1cccnc1)c1nc2ccc(F)cc2s1 | > 15 µM | 4.23 µM
O=C(Nc1ccc(Cl)c(Cl)c1)c1ccc(-c2ccccc2)cc1 | > 15 µM | > 15 µM
CN1/C(=C/c2cccc[n+]2CCO)Sc2ccccc21 | 1.79 µM | 1.2 µM
COc1nc(N=C(N)N)nc2c(C)cccc12 | 2.42 µM | 3.41 µM
CN(C)S(=O)(=O)c1ccc(C(=O)NNc2nc3ccc(Cl)cc3s2)cc1 | 4.68 µM | 4.5 µM
CCCCCCCn1c(=N)n(CC(O)COc2ccccc2)c2ccccc21 (configuration not stated) | 1.59 µM | 1.43 µM
CC(=O)Nc1ccc(S(=O)(=O)Nc2ccc(Nc3nc(C)cc(N4CCCC4)n3)cc2)cc1 | 0.57 µM | 3.44 µM
CCCCOC(=O)c1ccc(Nc2cc(C)nc3ccccc23)cc1 | 3.4 µM | > 15 µM
Cc1cc(NC(=O)CSc2ccc3nnc(-c4ccc(Cl)cc4)n3n2)no1 | > 15 µM | > 15 µM
COc1ccc(OC)c2sc(NNC(=O)c3ccc(S(=O)(=O)N(C)C)cc3)nc12 | 6.72 µM | 6.61 µM
CC(=O)N(C1=C(N2CCOCC2)C(=O)c2ccccc2C1=O)c1ccc(F)cc1 | 0.51 µM | 0.548 µM
CCCCOc1ccc(S(=O)(=O)Nc2ccc(Nc3nc(C)cc(N(C)C)n3)cc2)cc1 | 1.66 µM | > 15 µM
CCOc1cc(C2C3=C(O)CC(c4ccc(Cl)cc4)CC3=NC(C)=C2C(=O)OC(C)C)ccc1O (configuration not stated) | 1.54 µM | 1.62 µM
CCOC(=O)c1cnc2ccc(OCC)cc2c1NCCCN1CCOCC1 | 1.08 µM | 2.36 µM
CCCCC(=O)NC(c1ccc(N(CC)CC)cc1)c1ccc2cccnc2c1O (configuration not stated) | 1.65 µM | 3.01 µM

SMILES | EC50 (Plasmodium falciparum [1]) | EC50 (Plasmodium falciparum [2])
CC(=O)Nc1ccc(S(=O)(=O)N2CCN(c3ccc(Nc4ccccc4)nn3)CC2)cc1 | 7.32 µM | > 15 µM
CCCO/C(O)=C1\C(C)=NC2=C(C(=O)CC(c3ccc(Cl)cc3)C2)C1c1cccc(O)c1 (configuration not stated) | 4.83 µM | 4.47 µM
COc1ccc(C2Sc3ccccc3N=C3C2=C(O)c2ccccc23)cc1 (configuration not stated) | 1.74 µM | 2.31 µM
CC(=O)C1=C(c2ccc(Br)cc2)N(C(C)=O)n2cnnc2S1 | > 15 µM | 1.56 µM
CCN(CC)CCNC(=O)CCc1nnc2n(Cc3ccc(Cl)cc3)c(=O)c3ccccc3n12 | > 15 µM | > 15 µM
COc1ccc(CNCCc2ccc(F)cc2)cc1C | > 15 µM | > 15 µM
CCCOc1ccc(/C=C/c2ccc3cccc(O)c3n2)cc1 | > 15 µM | > 15 µM
COc1cc(OC)cc(-c2nnc(NC(=O)c3cccc(S(C)(=O)=O)c3)o2)c1 | > 15 µM | > 15 µM
COc1ccc(Nc2cc(C)nc(Nc3ccc(NS(=O)(=O)c4ccc(C)cc4)cc3)n2)cc1 | 0.559 µM | > 15 µM
CCC1=Nc2cc(C(=O)NCc3ccco3)ccc2Sc2ccc(Cl)cc21 | 3.74 µM | 6.27 µM
CCCN(CCC)CCCNC(=O)c1cc2c(-c3ccc(OC)c(OC)c3)nn(C)c2s1 | 4.04 µM | > 15 µM
CN1CCN(Cc2c(O)ccc3c(=O)c(Oc4ccccc4Cl)c(C(F)(F)F)oc23)CC1 | 1.72 µM | 0.71 µM
CC(C)CN1CCC(C(=O)Nc2ccc(-c3nc4ccccc4[nH]3)cc2)CC1 | > 15 µM | > 15 µM
CCC(C)c1ccc(NC(=O)c2cc(Br)ccc2OC)c(O)c1 (configuration not stated) | 6.05 µM | 2.11 µM
COc1cccc(OCC(=O)NCc2ccccc2)c1 | > 15 µM | > 15 µM
COc1ccc(-n2c(C)cc(/C=c3\sc4nc5ccccc5n4c3=O)c2C)cc1 | > 15 µM | > 15 µM
CCN1C(=O)c2ccccc2Sc2ccc(NC(=O)NCc3ccccc3Cl)cc21 | > 15 µM | > 15 µM
CC(=O)NC1=NN(C(C)=O)C(C)(c2cccc(NC(C)=O)c2)S1 (configuration not stated) | 3.57 µM | 4.14 µM
Cc1cccc(-n2ccnc2SCC(=O)Nc2cccc(F)c2)c1C | > 15 µM | 7.99 µM
CN(C)c1ccc(-c2n(C)c3ccccc3[n+]2C)cc1 | > 15 µM | 4.36 µM
